Assay results as given in paper PMC9414507, “Drug Repurposing Based on Protozoan Proteome: In Vitro Evaluation of In Silico Screened Compounds against Toxoplasma gondii” (Pharmaceutics, 2022).
Where two headings read alike, the source gives them in different places.

Tests used:
[1] = ref Pandemic Response Box and COVID Box supporting information; cited from earlier work
[2] = Cytotoxicity in mammalian cells (MTT assay); format: cell-based; conditions: human, read-out: CC50 (Half Cytotoxic Concentration against HFF cells)
Protocol: HFF were seeded at 5 × 10^4 cells/well in 96-well microplates and incubated overnight to adhere to the plate. After that, the cells were incubated in the presence of increasing concentrations of the compounds for 72 h at 37 °C in a 5% CO2 humidified incubator. The viability of the cells was determined by the MTT assay as previously described. The medium in each well was replaced by PBS (100 µL/well), MTT (5 mg/mL) was added (20 µL/well), and the plate was incubated for 4 h at 37 °C. […] HFF incubated in D2 without drug treatment were used as viability control. Viability of 100% was expressed based on the optical density of untreated HFF cells, after normalization.

| Compound | Rule of Five [1] | CC50 at 72 h ([2]; HFF) [nM] | CC50 at 72 h ([2]; HFF cells) [nM] |
| --- | --- | --- | --- |
| COc1cc(Cc2cnc(N)nc2N)cc(OC)c1OC [Trimethoprim] | 4 |  |  |
| Nc1nc(F)nc2c1ncn2[C@@H]1O[C@H](CO)[C@@H](O)[C@@H]1O [Fludarabine] | 4 | 2140 |  |
| C=CCNc1nc(NCC=C)nc(N2CCN(C(c3ccc(F)cc3)c3ccc(F)cc3)CC2)n1 [Almitrine] | 3 |  | > 20000 |
| CCCC(CCC)C(=O)O [Valproic acid] | 4 |  |  |
| CC(C)C[C@H](NC(=O)[C@H](Cc1ccccc1)NC(=O)c1cnccn1)B(O)O [Bortezomib] | 4 | 79 |  |
| C[C@H]1O[C@@H](O[C@H]2[C@@H](O)C[C@H](O[C@H]3[C@@H](O)C[C@H](O[C@H]4CC[C@@]5(C)[C@H](CC[C@@H]6[C@@H]5C[C@@H](O)[C@]5(C)[C@@H](C7=CC(=O)OC7)CC[C@]65O)C4)O[C@@H]3C)O[C@@H]2C)C[C@H](O)[C@@H]1O [Digoxin] | 1 |  |  |
| COc1c(C)c2c(c(O)c1C/C=C(\C)CCC(=O)O)C(=O)OC2 [Mycophenolic acid] | 4 |  |  |
| C[C@H]1O[C@@H](O[C@H]2[C@@H](O)C[C@H](O[C@H]3[C@@H](O)C[C@H](O[C@H]4CC[C@@]5(C)[C@H](CC[C@@H]6[C@@H]5CC[C@]5(C)[C@@H](C7=CC(=O)OC7)CC[C@]65O)C4)O[C@@H]3C)O[C@@H]2C)C[C@H](O)[C@@H]1O [Digitoxin] | 2 |  |  |
| C[C@H]1COc2c(N3CCN(C)CC3)c(F)cc3c(=O)c(C(=O)O)cn1c23 [Levofloxacin] | 4 |  |  |
| COc1cccc2c1C(=O)c1c(O)c3c(c(O)c1C2=O)C[C@@](O)(C(=O)CO)C[C@@H]3O[C@H]1C[C@H](N)[C@H](O)[C@H](C)O1 [Doxorubicin] | 1 |  |  |
| NC(=O)c1ncn([C@@H]2O[C@H](CO)[C@@H](O)[C@H]2O)n1 [Ribavirin] | 4 |  |  |
